In ChEMBL document CHEMBL5252560 (Bioorg Med Chem Lett, 2023):
Calls of active or inactive are those of the source. No cut-off for these calls is given here.

Tests used:
HepG2 [1] = experiment: Induction of cell cycle arrest in human HepG2 cells assessed as accumulation of cells at G2 phase at 100 nM by propidium iodide staining based flow cytometric analysis (reference value: 8.58%); assay type: functional
A549 = experiment: Antiproliferative activity against human A549 cells assessed as cell growth inhibition; assay type: functional, cell-based
U-937 = experiment: Antiproliferative activity against human U-937 cells assessed as cell growth inhibition; assay type: functional, cell-based
HepG2 [2] = experiment: Antiproliferative activity against human HepG2 cells assessed as cell growth inhibition; assay type: functional, cell-based
Y79 = experiment: Antiproliferative activity against human Y79 cells assessed as cell growth inhibition; assay type: functional, cell-based
Tubulin (Homo sapiens) [3] = molecular target: T1, Tubulin (Homo sapiens) (UniProt P68371+Q9H4B7+P0DPH7+P68366+Q13509+Q71U36+P04350+Q3ZCM7+P07437+P68363+Q9BQE3+Q6PEY2+Q13885+Q9BVA1+Q9BUF5); experiment: Inhibition of tubulin (unknown origin) polymerization assessed as reduction in fluorescence intensity at 4 uM; assay type: protein-complex assay
Tubulin (Homo sapiens) [4] = molecular target: T1, Tubulin (Homo sapiens); experiment: Disruption of microtubule assembly in human HepG2 cells assessed as changes in cell morphology at 100 nM by immunofluorescence analysis; assay type: cell-based
Tubulin (Homo sapiens) [5] = molecular target: T1, Tubulin (Homo sapiens); experiment: Disruption of microtubule assembly in human HepG2 cells assessed as loss of microtubule structure at 100 nM by immunofluorescence analysis; assay type: cell-based
HepG2 [6] = experiment: Induction of cell cycle arrest in human HepG2 cells assessed as accumulation of cells at G1 phase at 25 nM by propidium iodide staining based flow cytometric analysis (reference value: 72.08 %); assay type: functional
HepG2 [7] = experiment: Induction of cell cycle arrest in human HepG2 cells assessed as accumulation of cells at G1 phase at 50 nM by propidium iodide staining based flow cytometric analysis (reference value: 72.08 %); assay type: functional
HepG2 [8] = experiment: Induction of cell cycle arrest in human HepG2 cells assessed as accumulation of cells at G1 phase at 100 nM by propidium iodide staining based flow cytometric analysis (reference value: 72.08 %); assay type: functional
HepG2 [9] = experiment: Induction of cell cycle arrest in human HepG2 cells assessed as accumulation of cells at S phase at 25 nM by propidium iodide staining based flow cytometric analysis (reference value: 19.34%); assay type: functional
HepG2 [10] = experiment: Induction of cell cycle arrest in human HepG2 cells assessed as accumulation of cells at S phase at 50 nM by propidium iodide staining based flow cytometric analysis (reference value: 19.34%); assay type: functional
HepG2 [11] = experiment: Induction of cell cycle arrest in human HepG2 cells assessed as accumulation of cells at S phase at 100 nM by propidium iodide staining based flow cytometric analysis (reference value: 19.34%); assay type: functional
HepG2 [12] = experiment: Induction of cell cycle arrest in human HepG2 cells assessed as accumulation of cells at G2 phase at 25 nM by propidium iodide staining based flow cytometric analysis (reference value: 8.58%); assay type: functional
HepG2 [13] = experiment: Induction of cell cycle arrest in human HepG2 cells assessed as accumulation of cells at G2 phase at 50 nM by propidium iodide staining based flow cytometric analysis (reference value: 8.58%); assay type: functional
HepG2 [14] = experiment: Induction of cell cycle arrest in human HepG2 cells assessed as accumulation of cells at G1 phase at 50 nM incubated for 6 hrs by propidium iodide staining based flow cytometric analysis (reference value: 62.58%); assay type: functional
HepG2 [15] = experiment: Induction of cell cycle arrest in human HepG2 cells assessed as accumulation of cells at S phase at 50 nM incubated for 6 hrs by propidium iodide staining based flow cytometric analysis (reference value: 22.36%); assay type: functional
HepG2 [16] = experiment: Induction of cell cycle arrest in human HepG2 cells assessed as accumulation of cells at G2 phase at 50 nM incubated for 6 hrs by propidium iodide staining based flow cytometric analysis (reference value: 15.06%); assay type: functional
HepG2 [17] = experiment: Induction of cell cycle arrest in human HepG2 cells assessed as accumulation of cells at G1 phase at 50 nM incubated for 12 hrs by propidium iodide staining based flow cytometric analysis (reference value: 62.58%); assay type: functional
HepG2 [18] = experiment: Induction of cell cycle arrest in human HepG2 cells assessed as accumulation of cells at S phase at 50 nM incubated for 12 hrs by propidium iodide staining based flow cytometric analysis (reference value: 22.36%); assay type: functional
HepG2 [19] = experiment: Induction of cell cycle arrest in human HepG2 cells assessed as accumulation of cells at G2 phase at 50 nM incubated for 12 hrs by propidium iodide staining based flow cytometric analysis (reference value: 15.06%); assay type: functional
HepG2 [20] = experiment: Induction of cell cycle arrest in human HepG2 cells assessed as accumulation of cells at G1 phase at 50 nM incubated for 24 hrs by propidium iodide staining based flow cytometric analysis (reference value: 62.58%); assay type: functional
HepG2 [21] = experiment: Induction of cell cycle arrest in human HepG2 cells assessed as accumulation of cells at S phase at 50 nM incubated for 24 hrs by propidium iodide staining based flow cytometric analysis (reference value: 22.36%); assay type: functional
HepG2 [22] = experiment: Induction of cell cycle arrest in human HepG2 cells assessed as accumulation of cells at G2 phase at 50 nM incubated for 24 hrs by propidium iodide staining based flow cytometric analysis (reference value: 15.06%); assay type: functional
HepG2 [23] = experiment: Inhibition of cell migration in human HepG2 cells at 25 to 100 nM incubated for 48 hrs by wound healing assay; assay type: functional, cell-based; conditions: dose 25-100 nM
HepG2 [24] = experiment: Inhibition of cell invasion in human HepG2 cells by transwell invasion assay; assay type: functional, cell-based; conditions: dose 25-100 nM
HepG2 [25] = experiment: Induction of apoptosis in human HepG2 cells by AnnexinV-FITC/PI-staining based flow cytometry; assay type: functional, cell-based; conditions: dose 25-100 nM

IC50 (A549): 0.271 µM
IC50 (U-937): 0.138 µM
IC50 (HepG2 [2]): 0.065 µM
inhibition (Tubulin (Homo sapiens) [3]): Active
Activity (Tubulin (Homo sapiens) [4]): Active
Activity (Tubulin (Homo sapiens) [5]): Active
SMILES: COc1cc(C(/C=C/c2ccc3[nH]ccc3c2)=N/O)cc(OC)c1OC
Activity (HepG2 [1]): 70.39%
IC50 (Y79): 0.251 µM
Activity (HepG2 [6]): 71.68%
Activity (HepG2 [7]): 56.33%
Activity (HepG2 [8]): 6%
Activity (HepG2 [9]): 4.78%
Activity (HepG2 [10]): 4.81%
Activity (HepG2 [11]): 23.61%
Activity (HepG2 [12]): 23.54%
Activity (HepG2 [13]): 38.86%
Activity (HepG2 [14]): 63.46%
Activity (HepG2 [15]): 18.56%
Activity (HepG2 [16]): 17.98%
Activity (HepG2 [17]): 56.18%
Activity (HepG2 [18]): 17.79%
Activity (HepG2 [19]): 25.73%
Activity (HepG2 [20]): 60.13%
Activity (HepG2 [21]): 26.95%
Activity (HepG2 [22]): 26.95%
inhibition (HepG2 [23]): Active
inhibition (HepG2 [24]): Dose-Dependent Effect
Activity (HepG2 [25]): Dose-Dependent Effect
